In ChEMBL document CHEMBL1132006, “Synthesis and biological evaluation of coumarincarboxylic acids as inhibitors of gyrase B. L-rhamnose as an effective substitute for L-noviose” (1999) one finds MIC data, which are given here for 17 compounds.

The test system of assay [1] is Staphylococcus epidermidis. The assay can be described thus: In vitro antibacterial activity against Staphylococcus epidermidis 012GO39 OxaTei-R strain. It counts as functional.
Assay [2] concerns Staphylococcus aureus. Nature of the assay: In vitro antibacterial activity against Staphylococcus aureus 011HT3 strain. The class given is functional.
Assay [3] relates to Staphylococcus aureus. The assay can be described thus: In vitro antibacterial activity against Staphylococcus aureus 011HT1 Nov-R strain. The class given is functional.
In assay [4] the test system is Staphylococcus aureus. Nature of the assay: In vitro antibacterial activity against Staphylococcus aureus 011GO76 OfloOxaEry-R strain. The class given is functional.
In assay [5] the test system is Enterococcus faecium. The assay can be described thus: In vitro antibacterial activity against Enterococcus faecium 02D31P2 VanTeiEry-R strain. The class given is functional.
For assay [6], the system named is Streptococcus pyogenes. Nature of the assay: In vitro antibacterial activity against Streptococcus pyogenes O2A1UC1 strain.

In brackets after ≈: the same amount, converted by molar mass. Some results are limits rather than exact numbers.

Regarding `CO[C@@H]1[C@@H](OC(=O)c2ccc(C)[nH]2)[C@@H](O)[C@H](Oc2ccc3c(C(=O)O)cc(=O)oc3c2C)O[C@H]1C`, the MIC in assay [1], in assay [2], in assay [3], in assay [4], in assay [5] and in assay [6] was above 40 µg/mL each time.

`CCCCCCCc1cc(O[C@@H]2O[C@@H](C)[C@H](OC)[C@@H](OC(=O)c3ccc(C)[nH]3)[C@H]2O)c(C)c2oc(=O)c(C(=O)NS(=O)(=O)c3ccccc3)cc12`: the MIC in assay [1] turned out to be 0.6 µg/mL (≈ 0.828 µM); in assay [2], 0.15 µg/mL (≈ 0.207 µM); in assay [3] it was 2.5 µg/mL (≈ 3.45 µM); in assay [4], 0.6 µg/mL (≈ 0.828 µM); in assay [5] it was 2.5 µg/mL (≈ 3.45 µM); in assay [6], 0.3 µg/mL (≈ 0.414 µM).

Regarding `CO[C@@H]1[C@@H](OC(N)=O)[C@@H](O)[C@H](Oc2ccc3c(O)c(NC(=O)c4ccc(O)c(CC=C(C)C)c4)c(=O)oc3c2C)OC1(C)C` [NOVOBIOCIN], the MIC is 0.08 µg/mL (≈ 0.131 µM) in assay [1]; below 0.04 µg/mL in assay [2]; 20 µg/mL (≈ 32.6 µM) in assay [3]; below 0.04 µg/mL in assay [4]; 0.3 µg/mL (≈ 0.49 µM) in assay [5]; 0.15 µg/mL (≈ 0.245 µM) in assay [6].

Consider `CO[C@@H]1[C@@H](OC(=O)c2ccc(C)[nH]2)[C@@H](O)[C@H](Oc2ccc3c(C)c(CC(=O)O)c(=O)oc3c2C)O[C@H]1C`, for which the MIC in assay [1] was above 40 µg/mL; in assay [2], above 40 µg/mL; in assay [3], above 40 µg/mL; in assay [4], above 40 µg/mL; in assay [5] it was above 40 µg/mL; in assay [6], 40 µg/mL (≈ 77.6 µM).

For `CCCCCCCc1cc(O[C@@H]2O[C@@H](C)[C@H](OC)[C@@H](OC(=O)c3ccc(C)[nH]3)[C@H]2O)c(C)c2oc(=O)c(C(=O)O)cc12`, the MIC in assay [1] came to 0.3 µg/mL (≈ 0.512 µM); in assay [2], 0.08 µg/mL (≈ 0.137 µM); in assay [3], 5 µg/mL (≈ 8.54 µM); in assay [4], 0.3 µg/mL (≈ 0.512 µM); in assay [5] it was 0.6 µg/mL (≈ 1.02 µM); in assay [6], 0.3 µg/mL (≈ 0.512 µM).

Turning to `CO[C@@H]1[C@@H](OC(=O)c2ccc(C)[nH]2)[C@@H](O)[C@H](Oc2ccc3c(CC(=O)O)cc(=O)oc3c2C)O[C@H]1C`, the MIC in assay [1] is 10 µg/mL (≈ 19.9 µM); in assay [2], 10 µg/mL (≈ 19.9 µM); in assay [3], above 40 µg/mL; in assay [4] it was 40 µg/mL (≈ 79.8 µM); in assay [5], above 40 µg/mL; in assay [6], above 40 µg/mL.

In the case of `CCCCCc1cc(O[C@@H]2O[C@@H](C)[C@H](OC)[C@@H](OC(=O)c3ccc(C)[nH]3)[C@H]2O)c(C)c2oc(=O)c(C(=O)O)cc12`, the MIC was determined as 0.6 µg/mL (≈ 1.08 µM) in assay [1]; 0.6 µg/mL (≈ 1.08 µM) in assay [2]; 20 µg/mL (≈ 35.9 µM) in assay [3]; 2.5 µg/mL (≈ 4.48 µM) in assay [4]; 2.5 µg/mL (≈ 4.48 µM) in assay [5]; 1.2 µg/mL (≈ 2.15 µM) in assay [6].

On to `CO[C@@H]1[C@@H](OC(=O)c2ccc(C)[nH]2)[C@@H](O)[C@H](Oc2cc(Cc3ccccc3)c3cc(C(=O)O)c(=O)oc3c2C)O[C@H]1C`, for which the MIC is 2.5 µg/mL (≈ 4.33 µM) in assay [1]; 2.5 µg/mL (≈ 4.33 µM) in assay [2]; above 40 µg/mL in assay [3]; 5 µg/mL (≈ 8.66 µM) in assay [4]; 20 µg/mL (≈ 34.6 µM) in assay [5]; 5 µg/mL (≈ 8.66 µM) in assay [6].

Consider `COC(=O)Cc1cc(=O)oc2cc(O[C@@H]3O[C@@H](C)[C@H](OC)[C@@H](OC(=O)c4ccc(C)[nH]4)[C@H]3O)ccc12`, for which the MIC in assay [1], in assay [2], in assay [3], in assay [4], in assay [5] and in assay [6] was above 40 µg/mL throughout.

Turning to `CCCc1cc(O[C@@H]2O[C@@H](C)[C@H](OC)[C@@H](OC(=O)c3ccc(C)[nH]3)[C@H]2O)c(C)c2oc(=O)c(C(=O)O)cc12`, the MIC in assay [1] was 10 µg/mL (≈ 18.9 µM); in assay [2], 10 µg/mL (≈ 18.9 µM); in assay [3] it was above 40 µg/mL; in assay [4], 40 µg/mL (≈ 75.5 µM); in assay [5], above 40 µg/mL; in assay [6], above 40 µg/mL.

As to `CO[C@@H]1[C@@H](OC(=O)c2ccc(C)[nH]2)[C@@H](O)[C@H](Oc2ccc3c(CC(=O)O)cc(=O)oc3c2C)OC1(C)C`, the MIC in assay [1] was 2.5 µg/mL (≈ 4.85 µM); in assay [2], 2.5 µg/mL (≈ 4.85 µM); in assay [3] it was above 40 µg/mL; in assay [4], 5 µg/mL (≈ 9.7 µM); in assay [5] it was above 40 µg/mL; in assay [6], 10 µg/mL (≈ 19.4 µM).

In the case of `CO[C@@H]1[C@@H](OC(=O)c2ccc(C)[nH]2)[C@@H](O)[C@H](Oc2ccc3c(O)c(NC(=O)c4ccc(O)c(CC=C(C)C)c4)c(=O)oc3c2Cl)OC1(C)C` [CHLOROBIOCIN], the MIC in assay [1] was below 0.04 µg/mL; in assay [2], below 0.04 µg/mL; in assay [3] it was 0.15 µg/mL (≈ 0.215 µM); in assay [4] it was below 0.04 µg/mL; in assay [6], below 0.04 µg/mL.

For the compound `CCCCCc1cc(O[C@@H]2OC(C)(C)[C@H](OC)[C@@H](OC(=O)c3ccc(C)[nH]3)[C@H]2O)c(C)c2oc(=O)c(C(=O)O)cc12`, the MIC is below 0.04 µg/mL in assay [1]; below 0.04 µg/mL in assay [2]; 2.5 µg/mL (≈ 4.37 µM) in assay [3]; 0.15 µg/mL (≈ 0.262 µM) in assay [4]; 0.3 µg/mL (≈ 0.525 µM) in assay [5]; below 0.04 µg/mL in assay [6].

`CO[C@@H]1[C@@H](OC(=O)c2ccc(C)[nH]2)[C@@H](O)[C@H](Oc2ccc3c(C)c(CCC(=O)O)c(=O)oc3c2C)O[C@H]1C`: the MIC in assay [1] was above 40 µg/mL; in assay [2], above 40 µg/mL; in assay [3] it was above 40 µg/mL; in assay [4], above 40 µg/mL; in assay [5], above 40 µg/mL; in assay [6] it was 40 µg/mL (≈ 75.5 µM).

As for `CCCCCCCCCCCCc1cc(O[C@@H]2O[C@@H](C)[C@H](OC)[C@@H](OC(=O)c3ccc(C)[nH]3)[C@H]2O)c(C)c2oc(=O)c(C(=O)O)cc12`, the MIC was 40 µg/mL (≈ 61 µM) in assay [1]; 0.08 µg/mL (≈ 0.122 µM) in assay [2]; above 40 µg/mL in assay [3]; 5 µg/mL (≈ 7.62 µM) in assay [4]; above 40 µg/mL in assay [5]; 0.3 µg/mL (≈ 0.457 µM) in assay [6].

For `CO[C@@H]1[C@@H](OC(=O)c2ccc(C)[nH]2)[C@@H](O)[C@H](Oc2ccc3c(CC(=O)O)cc(=O)oc3c2)O[C@H]1C`, the MIC in assay [1], in assay [2], in assay [3], in assay [4], in assay [5] and in assay [6] was above 40 µg/mL each time.

`CO[C@@H]1[C@@H](OC(=O)c2ccc(C)[nH]2)[C@@H](O)[C@H](Oc2ccc3cc(C(=O)O)c(=O)oc3c2C)O[C@H]1C`: the MIC in assay [1] was above 40 µg/mL; in assay [2], above 40 µg/mL; in assay [3], above 40 µg/mL; in assay [4], above 40 µg/mL; in assay [5], above 40 µg/mL; in assay [6], 40 µg/mL (≈ 82.1 µM).

What is called MIC is the smallest concentration in the dilution series that meets the test's criterion for growth inhibition. Lower therefore signals inhibition by little substance.
